# Assay results published in patent US8916607B2, “Use of piperphentonamine or salts thereof in manufacture of medicaments for treating brain diseases” (Guangzhou Municipal Zhongwei Biotechnology Limited Company, priority 2009, dated 2014).
# Marks after values point to notes of the source that are not given here.
# How the values were obtained:
# [1] = test system: cerebral hemorrhage in rats induced by collagenase; experiment: ICH model induced by collagenase: brain water content (BWC); format: in vivo, Wistar rats
# Protocol: (§1) Animals are randomly divided into five groups: sham operation 24 h group; cerebral hemorrhage (Intracerebral Haemorrhage, ICH)+physiological saline group (model); ICH+piperphentonamine hydrochloride (JBTA, 2 mg/kg) group, called as high dose group (h); ICH+piperphentonamine hydrochloride (JBTA, 0.5 mg/kg) group, called as low dose group (1); ICH+nimodipine (Nim, 0.5 mg/kg) group. The last four groups are divided into 4 h, 8 h, 12 h, 24 h as four time subgroups respectively. Physiological saline solution, piperphentonamine hydrochloride and nimodipine are intravenously injected from rat tail before the ICH model is established for 30 minutes, once a day. Injecting slowly, the total amount of drug liquid is controlled in 1 ml/200 g body weight: physiological saline solution also being administered in 1 ml/200 g body weight. Each group has 7 Wistar rats.
# Observing the influence of piperphentonamine hydrochloride on the brain water content of intracerebral hemorrhage in rats in 4 h, 8 h, 12 h, 24 h, the animals of the different groups is anesthetized by chloral hydrate at predetermined time point, and decollating and taking the brain rapidly, putting the brain tissue on a filter paper wetted by saline solution to prevent water evaporating. Removing the leptomeninges and blood, cutting and taking the front half portion of brain tissue centered by the hole for the insertion needle, weighing precisely (accurate to 0.1 mg). It is controlled in 5 min to take the brain to finish weigh. Then putting in 95° C. constant temperature oven for 24 h, weighing the dry weight. The brain water content is calculated according to Blliot formula: BWC=(wet weight−dry weight)/wet weight×100%.
# (§2) Divide the animals randomly into five groups: sham operation (sham) 24 h group; ICH+normal saline group (model); ICH+piperphentonamine maleate (4 mg/kg) group, namely high dose group (h); ICH+piperphentonamine maleate (2 mg/kg) group, namely low dose group (1); ICH+nimodipine (0.5 mg/kg) group. The last four groups were divided into four time subgroup of 4 h, 8 h, 12 h and 24 h. Physiological solution, piperphentonamine maleate and nimodipine were injected intravenous from rat tail vein 30 minutes before the ICH model made, once a day. Inject slowly, the total amount of drug liquid was controlled in 1 ml/200 g body weight: normal saline was also administered in 1 ml/200 g body weight. Each group has seven Wistar rats.
# [2] = test system: cerebral hemorrhage of rats (autologous blood); experiment: cerebral hemorrhage by autologous blood into caudate nucleus: edema (dry-wet weight) and forelimb placement; format: in vivo, SD rats; details: local administering 3 h after hemorrhage
# Protocol: Adult male SD rats were divided randomly into normal saline group, cerebral hemorrhage group and piperphentonamine maleate group. A model of cerebral hemorrhage was established by the methods of injecting 50 μl autologous blood into caudate nucleus of rats, wherein, the position of caudate nucleus was determined according to “the rat cerebral in stereotaxic atlas”: the injection position is at the point of front to anterior fontanelle of 0.2 mm, right to the sagittal suture of 3.0 mm, depth of 6.3 mm. The change of cerebral edema was observed by the dry-wet weight method; the behavior was observed by forelimb placement experiment. The cerebral hemorrhage group was only injected without medicine, with the treatment time of at 3 h after hemorrhage. The edema measurement time was in 1, 2, 3, 7, 14 days after hemorrhage, the behavioral observation time phase was in 1, 2, 3, 7, 14, 28 days after hemorrhage, each group of each time phase had 6 rats.
# [3] = test system: cerebral hemorrhage in rats induced by collagenase; experiment: ICH model induced by collagenase: NE in brain tissue by ELISA; format: in vivo, Wistar rats; details: ICH rat brain tissue
# Description: (§3) Rats in each group were anesthetized by chloral hydrate, decollated rapidly and the brains were taken out. The brain tissue around the hole was cut and procured, weighed precisely, and made into a 10% tissue homogenate using a glass homogenizer in an ice bath environment with physiological saline as homogenized medium, the supernatant of which was taken to be determined the NE activity using ELISA method.
# [4] = test system: cerebral hemorrhage in rats induced by collagenase; experiment: cerebral hemorrhage (ICH) model induced by collagenase: neurology score; format: in vivo, Wistar rats
# Protocol: as §1
# The specific steps are as following: after the experimental rats are anesthetized by injecting chloral hydrate (350 mg/kg) in intraperitoneal, and being supinely immobilized in a stereotaxic instrument, and make the rat anterior fontanelle and posterior fontanelle in the same plane according to localization method reported by BAO Xinmin, etc. Being locally disinfected by iodine, incising in the midmost of scalp, scissoring the periosteum, exposing the anterior fontanelle, drilling a 1 mm diameter hole with thickness close to duramater in 3 mm left to the midline by number five needle. Inserting needle along the hole by the micro syringe fixed on a stereotaxic, the depth of needle insertion is 5.8 mm (i.e., the caudate nucleus position), slowly injecting collagenase VI 0.5 U. Injection time is 3 min, keeping for 5 min after injection, then pull the needle out, suturing the skin, and putting the rat into cage and feed. Inserting the needle and not injecting drugs in sham operation group, the remaining operations is the same as the above.
# After animals wake up, scoring nerve function defect of each group immediately according to the grading classification standards of nerve defect reported by Bedersog (litter improved).
# Choosing the animals with the score of 3 and more into the experiment, the animals are bred in different cages, eat and drink normally. Temperature is controlled in 20 to 25° C., score in 4 h, 8 h, 12 h, 24 h after establishment of the model.
# as §2
# [5] = test system: cerebral hemorrhage in rats induced by collagenase; experiment: ICH model induced by collagenase: NO in brain tissue by nitrate reductase method; format: in vivo, Wistar rats
# Description: as §3, with “brain take” for “brains”, “content of NO by nitrate reductase” for “NE activity using ELISA”
# [6] = test system: cerebral hemorrhage in rats induced by collagenase; experiment: ICH model induced by collagenase: histopathological observation; format: in vivo, Wistar rats
# Protocol: Influence of piperphentonamine hydrochloride on pathological morphology of cerebral hemorrhage in rats was observed. Each group animals were selected randomly, anesthetized deeply by chloral hydrate at predetermined time point, decollated and the brain were taken out rapidly, then, the brain tissue slices with hematoma (about 5 mm) were cut, and put into 10% formaldehyde solution immediately, fixed for 24 h followed by dehydration by graded ethanol, transparentizing by xylene, immersing in paraffin, embedding, slicing (5 μm), HE staining and sealing. The pathological changes area and the pathological change of the adjacent brain tissue were observed by optical microscope.
# [7] = test system: cultured cerebral neurons; experiment: NMDA induces neuron injury in primary cultured neurons; format: cell-based, rat; details: drug 50 mmol/L; NMDA 50 mmol/L, 12 h
# [8] = test system: cerebral edema of mice caused by closed cerebral trauma; experiment: closed cerebral trauma model of mice, brain water content; format: in vivo, Kunming mice; details: 2 mg/kg iv, brain taken after 24 h
# Protocol: There were 10 mice in each group.
# The closed cerebral trauma model of mice being established after fasting for 16 hours, administering intravenously to each group, striping and taking the brain of mouse after 24 hours, weighing the wet weight, and drying at 70° C. for 24 hours, then weighing the dry weight, and calculating brainwater content; the brain water content which is higher than normal values indicates the cerebral edema.
# The grouping method, administer method and model preparation were referred to example 2.
# human brain disease = experiment: research in treating human brain diseases (no details); format: in vivo
# [9] = 2 mg/kg iv 30 min before ICH, 4 h (example 12)
# [10] = 2 mg/kg iv 30 min before ICH, 8 h (example 12)
# [11] = 2 mg/kg iv 30 min before ICH, 12 h (example 12)
# [12] = 2 mg/kg iv 30 min before ICH, 24 h (example 12)
# [13] = 4 mg/kg iv 30 min before ICH, 8 h
# [14] = 4 mg/kg iv 30 min before ICH, 12 h
# [15] = 4 mg/kg iv 30 min before ICH, 24 h
compound,measurement,setting,value
CN(CCC(=O)/C=C/c1ccc(O)cc1)CCc1ccc2c(c1)OCO2.O=C(O)/C=C\C(=O)O [piperphentonamine maleate],brain water content,[1]; [9],62.66 ± 0.66^Δ
same,brain water content,[1]; [10],63.88 ± 0.55^ΔΔ
same,brain water content,[1]; [11],64.86 ± 0.59^ΔΔ
same,brain water content,[1]; [12],66.33 ± 0.5^ΔΔ
same,brain water content,"[1]; 4 mg/kg iv 30 min before ICH, 4 h, in %",62.19 ± 0.54
same,brain water content,[1]; [13],62.53 ± 0.42^Δ**
same,brain water content,[1]; [14],63.38 ± 0.15^ΔΔ**
same,brain water content,[1]; [15],64.62 ± 0.58^ΔΔ**
same,cerebral edema after cerebral hemorrhage,[2],could obviously relieve cerebral edema after cerebral hemorrhage
same,neural function defect after cerebral hemorrhage (forelimb placement),[2],improve the neural function defect after cerebral hemorrhage
same,NE,"[3]; high dose group (h), 4 mg/kg",2.37 ± 0.07^ΔΔ ng/ml
same,NE,"[3]; low dose group (l), 2 mg/kg",2.78 ± 0.05^ΔΔ ng/ml
same,neurological score,[4]; [9],3.61 ± 0.7
same,neurological score,[4]; [10],3.43 ± 0.82
same,neurological score,[4]; [11],2.92 ± 0.95
same,neurological score,[4]; [12],2.57 ± 1.28
same,neurological score,"[4]; 4 mg/kg iv 30 min before ICH, 4 h",3.25 ± 0.59
same,neurological score,[4]; [13],3.08 ± 0.95
same,neurological score,[4]; [14],1.88 ± 0.64*^Δ
same,neurological score,[4]; [15],1.37 ± 0.46**^ΔΔ
same,NO,"[5]; 2 mg/kg, ICH rat brain tissue (example 12)",2.16 ± 0.05^Δ μmol/g pro
same,NO,"[5]; 4 mg/kg, ICH rat brain tissue",1.48 ± 0.03^Δ μmol/g pro
same,histopathological observation,[6]; large dose (4 mg/kg) pretreatment,obviously reduce tissue edema and inflammatory cell infiltration after cerebral hemorrhage
same,histopathological observation,[6]; small dose maleate (2 mg/kg) or nimodipine (0.5 mg/kg) in advance,could ease the pathological changes above-mentioned in different levels
piperphentonamine,mortality,[7],30%
same,water content of cerebra (%),[8],78.31 ± 5.72 %
same,treating human brain and other diseases,human brain disease,obvious effect and clinical significance
same,pathological morphology of cerebral hemorrhage,[6]; small doses (0.5 mg/kg) in advance,could ease the pathological changes above-mentioned in different levels
